From publication PMC8398451, “Molecular Engineering of Curcumin, an Active Constituent of Curcuma longa L. (Turmeric) of the Family Zingiberaceae with Improved Antiproliferative Activity” (Plants, 2021)

What was measured:
HL-60(TB) = experiment: cells; format: cell-based
SR = experiment: NCI antiproliferative SRB assay, Leukemia panel; format: cell-based, Human
EKVX = experiment: NCI antiproliferative SRB assay, Non-Small Cell Lung Cancer panel; format: cell-based, Human
NCI-H226 = experiment: as above; format: cell-based, Human
NCI-H23 = experiment: as above; format: cell-based, Human
NCI-H322M = experiment: as above; format: cell-based, Human
NCI-H460 = experiment: as above; format: cell-based, Human
COLO 205 = experiment: NCI antiproliferative SRB assay, Colon Cancer panel; format: cell-based, Human
HCC-2998 = experiment: as above; format: cell-based, Human
HCT-15 = experiment: as above; format: cell-based, Human
HT29 = experiment: as above; format: cell-based, Human
SF-539 = experiment: NCI antiproliferative SRB assay, CNS Cancer panel; format: cell-based, Human
LOX IMVI = experiment: NCI antiproliferative SRB assay, Melanoma panel; format: cell-based, Human
M14 = experiment: NCI antiproliferative SRB assay, Melanoma panel; format: cell-based, Human
SK-MEL-28 = experiment: NCI antiproliferative SRB assay, Melanoma panel; format: cell-based, Human
UACC-62 = experiment: NCI antiproliferative SRB assay, Melanoma panel; format: cell-based, Human
OVCAR-3 = experiment: NCI antiproliferative SRB assay, Ovarian Cancer panel; format: cell-based, Human
OVCAR-4 = experiment: as above; format: cell-based, Human
OVCAR-5 = experiment: as above; format: cell-based, Human
OVCAR-8 = experiment: as above; format: cell-based, Human
NCI/ADR-RES = experiment: as above; format: cell-based, Human
786–0 = experiment: NCI antiproliferative SRB assay, Renal Cancer panel; format: cell-based, Human
CAKI-1 = experiment: as above; format: cell-based, Human
SN 12C = experiment: as above; format: cell-based, Human
UO-31 = experiment: as above; format: cell-based, Human
MDA-MB-231 = experiment: NCI antiproliferative SRB assay, Breast Cancer panel; format: cell-based
[1] = system: Non-Small Cell Lung Cancer cell line panel; experiment: NCI antiproliferative assay, panel summary; format: cell-based, Human
[2] = system: Ovarian Cancer cell line panel; experiment: NCI antiproliferative assay, panel summary; format: cell-based, Human
[3] = system: Renal Cancer cell line panel; experiment: NCI antiproliferative assay, panel summary; format: cell-based, Human
[4] = system: Breast Cancer cell line panel; experiment: NCI antiproliferative assay, panel summary; format: cell-based, Human
[5] = Homo sapiens, 5-dose 0.01-100 µM
[6] = Homo sapiens, 5-dose 0.01-100 µM, read-out: LC50 (the source's name)
[7] = Homo sapiens, 5-dose assay, read-out: Sub Panel MID b (mean GI50 of panel)

COc1cc(/C=C/c2cc(/C=C/c3ccc(O)c(OC)c3)n(C(=O)Nc3ccc(C(F)(F)F)cc3)n2)ccc1O [3c]
TGI (HL-60(TB); 5-dose 0.01-100 µM): 6.45 µM
GI50 (HL-60(TB); [5]): 1.98 µM
CC50 (HL-60(TB); [6]): > 100 µM
%GI (HL-60(TB); one dose 10 µM): 84.83%
GP (growth percent) (HL-60(TB); one dose 10 µM): 15.17
TGI (SR; 5-dose 0.01-100 µM): >100 µM
GI50 (SR; [5]): 1.48 µM
CC50 (SR; [6]): > 100 µM
%GI (SR; one dose 10 µM): 86.79%
GP (growth percent) (SR; one dose 10 µM): 13.21
TGI (EKVX; 5-dose 0.01-100 µM): 38.4 µM
GI50 (EKVX; [5]): 3.22 µM
CC50 (EKVX; [6]): > 100 µM
%GI (EKVX; one dose 10 µM): 38.75%
GP (growth percent) (EKVX; one dose 10 µM): 61.25
TGI (NCI-H226; 5-dose 0.01-100 µM): 27.6 µM
GI50 (NCI-H226; [5]): 7.29 µM
CC50 (NCI-H226; [6]): 91.7 µM
%GI (NCI-H226; one dose 10 µM): 17.33%
GP (growth percent) (NCI-H226; one dose 10 µM): 82.67
TGI (NCI-H23; 5-dose 0.01-100 µM): 6.48 µM
GI50 (NCI-H23; [5]): 2.13 µM
CC50 (NCI-H23; [6]): > 100 µM
%GI (NCI-H23; one dose 10 µM): 48.71%
GP (growth percent) (NCI-H23; one dose 10 µM): 51.29
TGI (NCI-H322M; 5-dose 0.01-100 µM): 12.9 µM
GI50 (NCI-H322M; [5]): 3.25 µM
CC50 (NCI-H322M; [6]): 49.6 µM
%GI (NCI-H322M; one dose 10 µM): 17.30%
GP (growth percent) (NCI-H322M; one dose 10 µM): 82.70
TGI (NCI-H460; 5-dose 0.01-100 µM): 9.95 µM
GI50 (NCI-H460; [5]): 3.22 µM
CC50 (NCI-H460; [6]): 50.7 µM
%GI (NCI-H460; one dose 10 µM): 81.71%
GP (growth percent) (NCI-H460; one dose 10 µM): 18.29
TGI (COLO 205; 5-dose 0.01-100 µM): 4.50 µM
GI50 (COLO 205; [5]): 2.05 µM
CC50 (COLO 205; [6]): 9.91 µM
%GI (COLO 205; one dose 10 µM): 48.73%
GP (growth percent) (COLO 205; one dose 10 µM): 51.27
TGI (HCC-2998; 5-dose 0.01-100 µM): 3.82 µM
GI50 (HCC-2998; [5]): 2.04 µM
CC50 (HCC-2998; [6]): 71.2 µM
%GI (HCC-2998; one dose 10 µM): −2.63%
GP (growth percent) (HCC-2998; one dose 10 µM): 102.63
TGI (HCT-15; 5-dose 0.01-100 µM): 9.63 µM
GI50 (HCT-15; [5]): 2.69 µM
CC50 (HCT-15; [6]): > 100 µM
%GI (HCT-15; one dose 10 µM): 74.49%
GP (growth percent) (HCT-15; one dose 10 µM): 25.51
TGI (HT29; 5-dose 0.01-100 µM): 4.13 µM
GI50 (HT29; Homo sapiens, HT-29, 5-dose 0.01-100 µM): 2.02 µM
CC50 (HT29; Homo sapiens, HT-29, 5-dose 0.01-100 µM, read-out: LC50 (the source's name)): 8.44 µM
%GI (HT29; one dose 10 µM): 96.50%
GP (growth percent) (HT29; one dose 10 µM): 3.50
TGI (SF-539; 5-dose 0.01-100 µM): 7.45 µM
GI50 (SF-539; [5]): 2.37 µM
CC50 (SF-539; [6]): 56 µM
%GI (SF-539; one dose 10 µM): 70.99%
GP (growth percent) (SF-539; one dose 10 µM): 29.01
TGI (LOX IMVI; 5-dose 0.01-100 µM): 3.71 µM
GI50 (LOX IMVI; [5]): 1.77 µM
%GI (LOX IMVI; one dose 10 µM): 90.89%
GP (growth percent) (LOX IMVI; one dose 10 µM): 9.11
TGI (M14; 5-dose 0.01-100 µM): 4.08 µM
GI50 (M14; [5]): 1.94 µM
CC50 (M14; [6]): 8.58 µM
%GI (M14; one dose 10 µM): 70.52%
GP (growth percent) (M14; one dose 10 µM): 29.48
TGI (SK-MEL-28; 5-dose 0.01-100 µM): 5.90 µM
GI50 (SK-MEL-28; [5]): 2.19 µM
CC50 (SK-MEL-28; [6]): 23.9 µM
%GI (SK-MEL-28; one dose 10 µM): 42.01%
GP (growth percent) (SK-MEL-28; one dose 10 µM): 57.99
TGI (UACC-62; 5-dose 0.01-100 µM): 4.76 µM
GI50 (UACC-62; [5]): 2.02 µM
CC50 (UACC-62; [6]): 16.7 µM
%GI (UACC-62; one dose 10 µM): 68.90%
GP (growth percent) (UACC-62; one dose 10 µM): 31.10
TGI (OVCAR-3; 5-dose 0.01-100 µM): 26.7 µM
GI50 (OVCAR-3; [5]): 3.41 µM
CC50 (OVCAR-3; [6]): > 100 µM
%GI (OVCAR-3; one dose 10 µM): 86.24%
GP (growth percent) (OVCAR-3; one dose 10 µM): 13.76
TGI (OVCAR-4; 5-dose 0.01-100 µM): 52.7 µM
GI50 (OVCAR-4; [5]): 3.51 µM
CC50 (OVCAR-4; [6]): > 100 µM
%GI (OVCAR-4; one dose 10 µM): 23.29%
GP (growth percent) (OVCAR-4; one dose 10 µM): 76.71
TGI (OVCAR-5; 5-dose 0.01-100 µM): 4.97 µM
GI50 (OVCAR-5; [5]): 2.16 µM
CC50 (OVCAR-5; [6]): 15.2 µM
GP (growth percent) (OVCAR-5; one dose 10 µM): 115.18
TGI (OVCAR-8; 5-dose 0.01-100 µM): >100 µM
GI50 (OVCAR-8; [5]): 3.33 µM
CC50 (OVCAR-8; [6]): > 100 µM
%GI (OVCAR-8; one dose 10 µM): 99.57%
GP (growth percent) (OVCAR-8; one dose 10 µM): 0.43
TGI (NCI/ADR-RES; 5-dose 0.01-100 µM): >100 µM
GI50 (NCI/ADR-RES; [5]): 3.51 µM
CC50 (NCI/ADR-RES; [6]): > 100 µM
%GI (NCI/ADR-RES; one dose 10 µM): 48.35%
GP (growth percent) (NCI/ADR-RES; one dose 10 µM): 51.65
TGI (786–0; 5-dose 0.01-100 µM): 7.52 µM
GI50 (786–0; [5]): 2.42 µM
CC50 (786–0; [6]): > 100 µM
%GI (786–0; one dose 10 µM): 79.93%
GP (growth percent) (786–0; one dose 10 µM): 20.07
TGI (CAKI-1; 5-dose 0.01-100 µM): 12.7 µM
GI50 (CAKI-1; [5]): 3.02 µM
CC50 (CAKI-1; [6]): 44.1 µM
%GI (CAKI-1; one dose 10 µM): 45.01%
GP (growth percent) (CAKI-1; one dose 10 µM): 54.99
TGI (SN 12C; 5-dose 0.01-100 µM): 9.90 µM
GI50 (SN 12C; Homo sapiens, SN12C, 5-dose 0.01-100 µM): 2.73 µM
CC50 (SN 12C; Homo sapiens, SN12C, 5-dose 0.01-100 µM, read-out: LC50 (the source's name)): > 100 µM
%GI (SN 12C; one dose 10 µM): 63.08%
GP (growth percent) (SN 12C; one dose 10 µM): 36.92
GI50 (UO-31; [5]): 1.94 µM
LC50 (50% lethal concentration) (UO-31; [5]): > 100 µM
%GI (UO-31; one dose 10 µM): 57.15%
GP (growth percent) (UO-31; one dose 10 µM): 42.85
TGI (MDA-MB-231; 5-dose 0.01-100 µM): 9.62 µM
GI50 (MDA-MB-231; Homo sapiens): 3.06 µM
CC50 (MDA-MB-231; [6]): > 100 µM
%GI (MDA-MB-231; one dose 10 µM): 45.21%
GP (growth percent) (MDA-MB-231; one dose 10 µM): 54.79
Mean % GI ([1]; 10 µM): 48.83%
Selectivity Ratio (MID a:MID b) ([1]; 5-dose assay): 0.82
GI50 [1, 7]: 3.44 µM
Mean % GI ([2]; 10 µM): 47.62%
Selectivity Ratio (MID a:MID b) ([2]; 5-dose assay): 0.88
GI50 [2, 7]: 3.24 µM
GI50 ([3]; Homo sapiens, read-out: Sub Panel MID b (mean GI50 of panel)): 3.06 µM
Mean % GI ([3]; Renal Cancer panel, 10 µM): 46.37%
Selectivity Ratio (MID a:MID b) ([3]; Renal Cancer panel, 5-dose assay): 0.93
Mean % GI ([4]; 10 µM): 60.04%
Selectivity Ratio (MID a:MID b) ([4]; 5-dose assay): 0.99
GI50 [4, 7]: 2.86 µM
